According to publication PMC11591356, “Immunomodulatory Effects of the Tobacco Defensin NaD1” (Antibiotics, 2024):
Ends that are not written are not given here.

Tests used:
[1] = test system: Caco-2 polarized monolayer; test: Caco-2 permeability assay, bidirectional transport; format: in vitro ADME, human; settings: Caco-2 polarized monolayer (21 days, TEER > 400 Ω cm^2), 5 µM FITC-labeled NaD1, HBSS transfer buffer pH 7.4, 90 min
Protocol: Caco-2 (ATCC HTB-37) cells were thawed and cultured in complete DMEM/F-12 culture medium (Corning), supplemented with 10% FBS in a humidified CO2-intubator. After the culture was subcultivated three times, the cells were seeded on cell inserts (PET, 0.4 μm, 0.6 cm^2 surface area, SPL Life Sciences, Pocheon-si, Republic of Korea) at a density of 2.5 × 10^5 cells/cm^2. Cells were grown for 21 days with re-feeding with the fresh medium every 2–3 days. To evaluate integrity of Caco-2 monolayer, a transepithelial electrical resistance (TEER) was measured by Millicell ERS-2 Voltohmmeter (Merck-Millipore, Burlington, MA, USA). Only inserts with TEER > 400 Ω cm^2 were used in the transport assay.
The permeability assay was conducted in transfer buffer (HBSS solution, containing 1 mM CaCl2, 1 mM MgCl2, 10 mM D(+)glucose, pH 7.4). […]
The apparent permeability coefficients (Papp) were calculated for each insert according to the following equation: Papp = dQ/dt × (1/(A × C0)), where dQ/dt is an amount of product present in the basolateral or apical chamber as a function of time (nM/s), A is an area of the insert (in cm^2) and C0 is an initial concentration of NaD1 in the apical or basolateral chamber (nM/mL). […]

primary monocytes = test: Multiplex xMAP assessment of cytokine production by primary monocytes; format: cell-based, human; settings: monocytes + 2 μM NaD1, 24 h
Source text: Peripheral blood mononuclear cells (PBMCs) from healthy donors were purchased from American Type Culture Collection (ATCC PCS-800-011). Primary monocytes were isolated from PBMCs by adherence to the plastic surface. For that, PBMCs were thawed, resuspended in RPMI-1640 culture medium (Corning, Corning, NY, USA) without serum at a concentration of 2 × 10^6 cells/mL, seeded into the wells of a 24-well plate and placed in a humidified CO2-intubator (CellXpert C170i, Eppendorf, Hamburg, Germany) for 1 h. After that, non-adherent cells were removed from the wells and attached monocytes were thoroughly washed with PBS and cultured in a CO2-intubator in complete RPMI-1640 containing 10% human serum (HS Type AB, Capricorn Scientific, Ebsdorfergrund, Germany) and 1×antibiotic-antimycotic (1×AA) solution (Sigma, St. Louis, MO, USA).
For the study of the immunomodulatory properties of NaD1, monocytes and immature dendritic cells (moDC) were seeded into the wells of a 24-well plate at densities of 4 × 10^5 and 1.3 × 10^5 cells per well, respectively, in complete RPMI-1640 with 10% HS and AA solution. Then, 24 h later, the culture medium was replaced by a fresh one either with 2 μM NaD1 for stimulation of the cells or without if for the control wells. The cultures were kept in a humidified CO2-intubator for 24 h and then the samples of the culture media were taken and frozen.
The absolute levels of 48 cytokines, chemokines and growth factors were determined at a protein level by multiplex xMAP technology (Luminex, Austin, TX, USA). For this, a MILLIPLEX Human Panel A kit (HCYTA-60K-PX48, Merck, Darmstadt, Germany) was used and the following 48 analytes were evaluated in two biological replications: sCD40L, EGF, CCL11/Eotaxin-1, FGF-basic/FGF-2, Flt-3 ligand, CX3CL1/Fractalkine, G-CSF, GM-CSF, GROα, IFNα2, IFN-γ, IL-1α, IL-1β, IL-1RA, IL-2, IL-3, IL-4, IL-5, IL-6, IL-7, CXCL8/IL-8, IL-9, IL-10, IL-12(p40), IL-12(p70), IL-13, IL-15, IL-17A/CTLA8, IL-17E/IL-25, IL-17F, IL-18, IL-22, IL-27, CXCL10/IP-10, CCL2/MCP-1, CCL7/MCP-3, M-CSF, CCL22/MDC, CXCL9/MIG, CCL3/MIP-1α, CCL4/MIP-1β, PDGF-AA, PDGF-AB/BB, CCL5/RANTES, TGF-α, TNF-α, TNF-β and VEGF-A. The fluorescent data were obtained on a MAGPIX system (Merck) operated with xPONENT 4.2 software (Merck). Final analysis was performed in MILLIPLEX Analyst v5.1 software (Merck).

Question: Which “Apparent permeability coefficient Papp, A→B (absorptive)” value ([1]; apical to basolateral, mean of 6 independent inserts) does the source give for “NaD1: Recombinant tobacco floral defensin NaD1 (UNIPROT Q8GTM0), obtained by heterologous expression in E. coli; FITC-labeled in the permeability assay (RECKTESNTFPGICITKPPCRKACISEKFTDGHCSKILRRCLCTKPC; cysteine pairing not given here; also: FITC label; UniProt Q8GTM0 26-72, looked up)” here?
Answer: 2.72 ×10⁻⁶ cm/s

Question: And the “Apparent permeability coefficient Papp, B→A (secretory)” value ([1]; basolateral to apical, mean of 4 independent inserts)?
Answer: 2.22 ×10⁻⁶ cm/s

Question: And the IL-2 absolute level (primary monocytes; control 0.36)?
Answer: 0.51 pg/mL

Question: What about the TGF-a absolute level (primary monocytes; control 0.73) of the same substance?
Answer: 0.73 pg/mL

Question: And the IFNg absolute level (primary monocytes; control 0.81)?
Answer: 1.13 pg/mL

Question: What about the IL-5 absolute level (primary monocytes; control 0.87) of the same substance?
Answer: <0.33↓ pg/ml

Question: And the IL-4 absolute level (primary monocytes; control 1.25)?
Answer: 1.44 pg/mL

Question: And the IL-18 absolute level (primary monocytes; control 1.81)?
Answer: 2.95 pg/mL

Question: And the TNFb absolute level (primary monocytes; control 1.89)?
Answer: 1.49 pg/mL

Question: And the “IL-12 (p40) absolute level” value (primary monocytes; control 2.8)?
Answer: 2.8 pg/mL

Question: What about the IL-15 absolute level (primary monocytes; control 4.96) of the same substance?
Answer: 4.19 pg/mL

Question: And the IL-9 absolute level (primary monocytes; control 5.17)?
Answer: 3.78 pg/mL

Question: What about the IL-1a absolute level (primary monocytes; control 5.33) of the same substance?
Answer: 7.2 pg/mL

Question: What about the IL-10 absolute level (primary monocytes; control 6.18) of the same substance?
Answer: 6.66 pg/mL

Question: What about the G-CSF absolute level (primary monocytes; control 10.38) of the same substance?
Answer: 6.59 pg/mL

Question: And the IL-13 absolute level (primary monocytes; control 10.99)?
Answer: 5.29 pg/mL

Question: And the IL-1b absolute level (primary monocytes; control 12.11)?
Answer: 12.11 pg/mL

Question: And the EGF absolute level (primary monocytes; control 12.18)?
Answer: 14.11 pg/mL

Question: And the IFNa2 absolute level (primary monocytes; control 13.22)?
Answer: 18.46 pg/mL

Question: What about the IL-6 absolute level (primary monocytes; control 27.82) of the same substance?
Answer: 26.88 pg/mL

Question: What about the MIP-1a absolute level (primary monocytes; control 29.35) of the same substance?
Answer: 27.88 pg/mL

Question: And the MIP-1b absolute level (primary monocytes; control 29.57)?
Answer: 34.19 pg/mL

Question: And the PDGF-AA absolute level (primary monocytes; control 35.56)?
Answer: 43.29 pg/mL

Question: And the Fractalkine absolute level (primary monocytes; control 41.58)?
Answer: 32.26 pg/mL

Question: What about the FGF-2 absolute level (primary monocytes; control 45.68) of the same substance?
Answer: 71.22 pg/mL

Question: And the VEGFa absolute level (primary monocytes; control 54.1)?
Answer: 52.47 pg/mL

Question: And the TNFa absolute level (primary monocytes; control 77.73)?
Answer: 79.94 pg/mL

Question: What about the MCP-1 absolute level (primary monocytes; control 82.06) of the same substance?
Answer: 75.95 pg/mL

Question: And the MCP-3 absolute level (primary monocytes; control 120.38)?
Answer: 119.63 pg/mL

Question: What about the IL-27 absolute level (primary monocytes; control 121.25) of the same substance?
Answer: 94.48 pg/mL

Question: What about the RANTES absolute level (primary monocytes; control 184.29) of the same substance?
Answer: 402.83 pg/mL

Question: And the IL-1RA absolute level (primary monocytes; control 204.3)?
Answer: 204.3 pg/mL

Question: And the IP-10 absolute level (primary monocytes; control 290.24)?
Answer: 390.23 pg/mL

Question: What about the GROa absolute level (primary monocytes; control 342.86) of the same substance?
Answer: 261.06 pg/mL

Question: And the MDC absolute level (primary monocytes; control 879.89)?
Answer: 759.82 pg/mL

Question: And the PDGF-AB/BB absolute level (primary monocytes; control 984.71)?
Answer: 1457 pg/mL

Question: What about the MIG absolute level (primary monocytes; control 1021) of the same substance?
Answer: 1301 pg/mL

Question: And the IL-8 absolute level (primary monocytes; control 9181)?
Answer: 6023 pg/mL

Question: What about the IL-7 absolute level (primary monocytes; control <0.32) of the same substance?
Answer: <0.32↓ pg/ml

Question: What about the FLT-3L absolute level (primary monocytes; control <0.61) of the same substance?
Answer: 0.69 pg/mL

Question: And the IL-3 absolute level (primary monocytes; control <0.77)?
Answer: <0.77↓ pg/ml

Question: What about the IL-17A absolute level (primary monocytes; control <1.00) of the same substance?
Answer: <1.00↓ pg/ml

Question: And the GM-CSF absolute level (primary monocytes; control <1.30)?
Answer: <1.30↓ pg/ml

Question: What about the “IL-12 (p70) absolute level” value (primary monocytes; control <1.79) of the same substance?
Answer: <1.79↓ pg/ml

Question: What about the Eotaxin absolute level (primary monocytes; control <3.80) of the same substance?
Answer: <3.80↓ pg/ml

Question: And the IL-22 absolute level (primary monocytes; control <9.00)?
Answer: <9.00↓ pg/ml

Question: What about the IL-17F absolute level (primary monocytes; control <16.98) of the same substance?
Answer: <16.98↓ pg/ml

Question: What about the M-GSF absolute level (primary monocytes; control <23.97) of the same substance?
Answer: <23.97↓ pg/ml

Question: And the IL-17E/IL-25 absolute level (primary monocytes; control <25.82)?
Answer: <25.82↓ pg/ml

Question: What about the sCD40L absolute level (primary monocytes; two biological replications, untreated control 151.36) of the same substance?
Answer: 151.36 pg/mL
